This test in a line: Study underlying Fig. 6: cumulative food intake after ip ghrelin and desacyl ghrelin, alone or simultaneously, freely fed rats, light phase. Format: in vivo, SD rats. Particulars: ghrelin 13 µg/kg ip plus vehicle. As to the method:
Male adult SD rats (Harlan-Winkelmann Co., Borchen, Germany) weighting 250 g were housed in groups of 4 rats/cage under conditions of controlled illumination (12:12 h light/dark cycle, lights on/off: 6:30 a.m./6:30 p.m.), humidity, and temperature (22 ± 2°C). Animals were fed with a standard rat diet (Altromin®, Lage, Germany) and tap water ad libitum. All animals were trained daily to be accustomed to the experimental conditions for 14 days before starting the experiments. During the handling phase, the back position was practiced to make animals familiar with receiving an ip injection.
Rat desacyl ghrelin (0.5 mg/ml; Peptides International, Louisville, USA) or rat ghrelin (1 mg/ml) was dissolved in distilled water and stored at -20°C. Immediately before starting the experiments, peptides were diluted in vehicle solution consisting of sterile 0.15 M NaCl (Braun, Melsungen, Germany) to reach the final concentration of 13 µg (∼4 nmol) ghrelin/kg, and 64 µg (∼20 nmol) or 127 µg (∼40 nmol) desacyl ghrelin/kg body weight. Peptide solutions were kept on ice for the duration of the experiments. […]
On the day of the experiment, freely fed animals were injected ip simultaneously (final volume: 0.5 ml) with vehicle plus vehicle (0.15 M NaCl + 0.15 M NaCl, n=13), ghrelin plus vehicle (13 µg/kg + 0.15 M NaCl, n=13), ghrelin (13 µg/kg) plus 64 µg/kg or 127 µg/kg desacyl ghrelin (n =13 in both groups), or vehicle plus 64 µg/kg desacyl ghrelin (n=13) and returned to single housing cages immediately after the injection. […] Food intake was determined by measuring the difference between the preweighed standard chow and the weight of chow at the end of the first 30 min, 1 h and 2 h food exposure.
The cumulative food intake monitored at the end of the first 30 min, 1 h, and 2 h after peptide or vehicle injection was expressed as food intake (g)/body weight (kg) (Ruter et al. 2003). Data were expressed as mean ± SEM and analyzed by Kruskal-Wallis One Way ANOVA. Differences between groups were evaluated by the Student-Newman-Keuls method; p < 0.05 was considered significant.

For the substance n-octanoyl-ghrelin, the cumulative food intake runs as follows: (2h, vehicle plus vehicle 2.65 ± 0.93) 7.71 ± 0.97 g/kg body weight; (one hour, vehicle plus vehicle 1.49 ± 0.72) 7.29 ± 0.92 g/kg. Also, the food intake (first half hour, vehicle plus vehicle 1.49 ± 0.72) is given as 5.76 ± 0.68 g/kg body weight.

Source of the values: patent EP2067481A1, “Therapeutic use of desacyl ghrelin” (Charité - Universitätsmedizin Berlin, priority 2007, dated 2009).
